Experimental data published in paper PMC3914206.

Experiments:
Test in all cases: KiNativ chemical proteomics profiling in HeLa and PC3 cell lysates
Format in all cases: binding
[1] = biological target: T1, selected panels of kinases in HeLa and PC3 cell lysates (Homo sapiens, UniProt Q96PY6); conditions: 10 uM; proteome HEL; peptide DIkSQNIFLTK; labeling site Lys2
T1 construct: endogenous in cells; host or cells: HeLa and PC3 cell lysates

[2] = biological target: T2, selected panels of kinases in HeLa and PC3 cell lysates (Homo sapiens, UniProt Q9Y4K4); conditions: 10 uM; proteome PC3; peptide […]kIIK; labeling site Lys1
T2 construct: endogenous in cells; host or cells: HeLa and PC3 cell lysates

[3] = biological target: T3, selected panels of kinases in HeLa and PC3 cell lysates (Homo sapiens, UniProt Q8NEB9); conditions: 10 uM; PIK3C3; peptide […]kHGDDLR; proteome HEL; labeling site ATP
T3 construct: endogenous in cells; host or cells: HeLa and PC3 cell lysates

[4] = biological target: T4, selected panels of kinases in HeLa and PC3 cell lysates (Homo sapiens, UniProt Q9NYL2); conditions: 10 uM, ZAK, peptide […]k, labeling site Lys1
T4 construct: endogenous in cells; host or cells: HeLa and PC3 cell lysates
T4 sequence (Q9NYL2 whole entry): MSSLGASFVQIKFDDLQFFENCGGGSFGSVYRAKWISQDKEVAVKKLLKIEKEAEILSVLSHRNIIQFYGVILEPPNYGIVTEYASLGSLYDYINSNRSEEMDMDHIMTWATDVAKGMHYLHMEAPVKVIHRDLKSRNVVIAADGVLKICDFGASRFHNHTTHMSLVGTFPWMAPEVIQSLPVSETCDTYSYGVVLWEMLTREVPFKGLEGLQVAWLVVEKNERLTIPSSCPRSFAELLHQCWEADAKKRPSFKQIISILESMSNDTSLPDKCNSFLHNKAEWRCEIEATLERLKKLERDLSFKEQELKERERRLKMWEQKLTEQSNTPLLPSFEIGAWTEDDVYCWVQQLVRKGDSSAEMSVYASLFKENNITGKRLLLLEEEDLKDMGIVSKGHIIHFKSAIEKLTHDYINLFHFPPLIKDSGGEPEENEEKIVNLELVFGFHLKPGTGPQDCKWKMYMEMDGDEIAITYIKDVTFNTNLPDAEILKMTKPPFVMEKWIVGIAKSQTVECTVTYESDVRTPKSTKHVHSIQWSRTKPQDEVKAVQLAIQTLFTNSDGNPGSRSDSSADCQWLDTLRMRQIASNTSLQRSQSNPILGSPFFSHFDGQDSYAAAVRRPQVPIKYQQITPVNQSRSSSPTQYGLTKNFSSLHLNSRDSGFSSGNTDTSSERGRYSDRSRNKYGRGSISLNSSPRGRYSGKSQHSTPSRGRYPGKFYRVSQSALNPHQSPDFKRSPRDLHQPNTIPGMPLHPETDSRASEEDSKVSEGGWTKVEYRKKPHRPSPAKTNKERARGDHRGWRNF

[5] = biological target: T5, selected panels of kinases in HeLa and PC3 cell lysates (Homo sapiens, UniProt P07332); conditions: 10 uM; proteome HEL; peptide […]kSCR; labeling site Lys1
T5 construct: endogenous in cells; host or cells: HeLa and PC3 cell lysates

[6] = biological target: T6, selected panels of kinases in HeLa and PC3 cell lysates (Homo sapiens, UniProt Q96GD4); conditions: 10 uM; proteome HEL; peptide SHFIVALkVLFK; labeling site Lys1
T6 construct: endogenous in cells; host or cells: HeLa and PC3 cell lysates

[7] = biological target: T7, selected panels of kinases in HeLa and PC3 cell lysates (Homo sapiens, UniProt P21127); conditions: 10 uM; PITSLRE; peptide DLk[…]; proteome PC3; labeling site Lys2
T7 construct: endogenous in cells; host or cells: HeLa and PC3 cell lysates

[8] = biological target: T8, selected panels of kinases in HeLa and PC3 cell lysates (Homo sapiens, UniProt Q00536); conditions: 10 uM; PCTAIRE1; peptide LTDNLVALkEIR; proteome PC3; labeling site Lys1
T8 construct: endogenous in cells; host or cells: HeLa and PC3 cell lysates
T8 sequence (Q00536 whole entry): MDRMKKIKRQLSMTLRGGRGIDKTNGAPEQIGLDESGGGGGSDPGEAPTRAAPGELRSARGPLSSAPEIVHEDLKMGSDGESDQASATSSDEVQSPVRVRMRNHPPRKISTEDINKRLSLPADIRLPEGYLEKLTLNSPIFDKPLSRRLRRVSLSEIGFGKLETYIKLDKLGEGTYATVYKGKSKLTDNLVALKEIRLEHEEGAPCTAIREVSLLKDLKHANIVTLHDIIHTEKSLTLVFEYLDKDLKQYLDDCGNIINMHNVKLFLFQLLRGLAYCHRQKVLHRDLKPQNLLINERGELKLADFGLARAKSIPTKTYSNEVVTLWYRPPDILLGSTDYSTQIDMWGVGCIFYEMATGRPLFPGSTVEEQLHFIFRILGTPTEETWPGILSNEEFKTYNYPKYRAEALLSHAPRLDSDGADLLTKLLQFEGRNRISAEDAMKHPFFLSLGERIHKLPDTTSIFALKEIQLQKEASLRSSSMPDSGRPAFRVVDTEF

[9] = biological target: T9, selected panels of kinases in HeLa and PC3 cell lysates (Homo sapiens, UniProt Q86SG6); conditions: 10 uM; proteome PC3; peptide DLkTQNILLDK; labeling site Lys2
T9 construct: endogenous in cells; host or cells: HeLa and PC3 cell lysates

[10] = biological target: T10, selected panels of kinases in HeLa and PC3 cell lysates (Homo sapiens, UniProt Q9Y6R4); conditions: 10 uM, peptide DIk[…], labeling site Lys2
T10 construct: endogenous in cells; host or cells: HeLa and PC3 cell lysates
T10 sequence (Q9Y6R4 whole entry): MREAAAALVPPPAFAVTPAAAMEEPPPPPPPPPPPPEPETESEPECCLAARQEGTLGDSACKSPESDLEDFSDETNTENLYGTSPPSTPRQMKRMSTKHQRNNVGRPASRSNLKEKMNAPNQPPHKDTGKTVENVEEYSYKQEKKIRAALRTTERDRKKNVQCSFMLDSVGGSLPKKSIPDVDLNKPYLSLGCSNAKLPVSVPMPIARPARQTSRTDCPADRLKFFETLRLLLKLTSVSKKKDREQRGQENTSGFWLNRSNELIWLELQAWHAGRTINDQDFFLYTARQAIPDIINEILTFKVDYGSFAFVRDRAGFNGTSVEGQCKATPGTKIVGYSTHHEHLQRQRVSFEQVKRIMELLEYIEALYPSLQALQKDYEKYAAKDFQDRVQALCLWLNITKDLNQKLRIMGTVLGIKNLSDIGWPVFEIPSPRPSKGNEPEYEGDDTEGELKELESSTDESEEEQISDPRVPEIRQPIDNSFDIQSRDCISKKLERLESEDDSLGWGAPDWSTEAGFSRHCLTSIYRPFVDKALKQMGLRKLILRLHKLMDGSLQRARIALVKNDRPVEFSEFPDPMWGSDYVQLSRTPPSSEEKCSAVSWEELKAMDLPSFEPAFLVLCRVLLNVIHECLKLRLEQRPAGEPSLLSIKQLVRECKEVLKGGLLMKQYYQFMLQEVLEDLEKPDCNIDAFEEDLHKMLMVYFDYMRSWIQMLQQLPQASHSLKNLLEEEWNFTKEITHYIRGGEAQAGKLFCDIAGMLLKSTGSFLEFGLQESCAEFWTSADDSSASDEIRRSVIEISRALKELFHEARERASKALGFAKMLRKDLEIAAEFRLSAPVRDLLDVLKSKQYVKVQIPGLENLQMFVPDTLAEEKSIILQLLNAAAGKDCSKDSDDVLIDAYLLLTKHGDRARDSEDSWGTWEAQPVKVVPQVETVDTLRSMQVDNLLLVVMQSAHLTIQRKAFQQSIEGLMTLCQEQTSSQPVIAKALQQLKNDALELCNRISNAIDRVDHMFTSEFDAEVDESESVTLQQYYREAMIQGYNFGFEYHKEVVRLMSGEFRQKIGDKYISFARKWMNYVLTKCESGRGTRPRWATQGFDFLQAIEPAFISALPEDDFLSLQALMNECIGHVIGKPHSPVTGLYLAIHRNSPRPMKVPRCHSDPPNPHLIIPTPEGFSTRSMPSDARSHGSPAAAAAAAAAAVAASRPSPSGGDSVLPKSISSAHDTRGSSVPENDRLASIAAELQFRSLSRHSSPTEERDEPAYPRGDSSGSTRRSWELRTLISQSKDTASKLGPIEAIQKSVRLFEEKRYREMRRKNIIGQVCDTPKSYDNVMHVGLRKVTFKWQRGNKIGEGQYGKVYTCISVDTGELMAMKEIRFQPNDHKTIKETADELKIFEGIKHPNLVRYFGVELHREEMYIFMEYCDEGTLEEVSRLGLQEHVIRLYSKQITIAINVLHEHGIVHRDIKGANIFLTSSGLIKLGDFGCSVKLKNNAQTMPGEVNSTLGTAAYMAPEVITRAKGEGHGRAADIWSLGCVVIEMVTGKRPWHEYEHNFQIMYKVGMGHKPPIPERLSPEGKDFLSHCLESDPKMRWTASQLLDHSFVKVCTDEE

[11] = biological target: T11, selected panels of kinases in HeLa and PC3 cell lysates (Homo sapiens, UniProt P19784); conditions: 10 uM; proteome PC3; peptide DVk[…]; labeling site Lys2
T11 construct: endogenous in cells; host or cells: HeLa and PC3 cell lysates
T11 sequence (P19784 whole entry): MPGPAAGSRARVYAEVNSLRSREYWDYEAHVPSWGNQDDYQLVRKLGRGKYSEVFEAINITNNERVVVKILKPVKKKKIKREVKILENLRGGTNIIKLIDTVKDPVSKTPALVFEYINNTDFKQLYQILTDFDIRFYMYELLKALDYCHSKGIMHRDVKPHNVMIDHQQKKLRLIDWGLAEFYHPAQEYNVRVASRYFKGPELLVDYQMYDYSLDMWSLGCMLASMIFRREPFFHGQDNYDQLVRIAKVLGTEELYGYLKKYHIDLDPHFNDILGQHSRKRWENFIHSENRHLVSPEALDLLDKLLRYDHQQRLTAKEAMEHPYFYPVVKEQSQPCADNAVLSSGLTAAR

[12] = biological target: T12, selected panels of kinases in HeLa and PC3 cell lysates (Homo sapiens, UniProt Q9UBS0); conditions: 10 uM; p70S6Kb; peptide DLk[…]; proteome HEL; labeling site Lys2
T12 construct: endogenous in cells; host or cells: HeLa and PC3 cell lysates

[13] = biological target: T13, selected panels of kinases in HeLa and PC3 cell lysates (Homo sapiens, UniProt O60307); conditions: 10 uM, peptide DLk[…], labeling site Lys2
T13 construct: endogenous in cells; host or cells: HeLa and PC3 cell lysates
T13 sequence (O60307 whole entry): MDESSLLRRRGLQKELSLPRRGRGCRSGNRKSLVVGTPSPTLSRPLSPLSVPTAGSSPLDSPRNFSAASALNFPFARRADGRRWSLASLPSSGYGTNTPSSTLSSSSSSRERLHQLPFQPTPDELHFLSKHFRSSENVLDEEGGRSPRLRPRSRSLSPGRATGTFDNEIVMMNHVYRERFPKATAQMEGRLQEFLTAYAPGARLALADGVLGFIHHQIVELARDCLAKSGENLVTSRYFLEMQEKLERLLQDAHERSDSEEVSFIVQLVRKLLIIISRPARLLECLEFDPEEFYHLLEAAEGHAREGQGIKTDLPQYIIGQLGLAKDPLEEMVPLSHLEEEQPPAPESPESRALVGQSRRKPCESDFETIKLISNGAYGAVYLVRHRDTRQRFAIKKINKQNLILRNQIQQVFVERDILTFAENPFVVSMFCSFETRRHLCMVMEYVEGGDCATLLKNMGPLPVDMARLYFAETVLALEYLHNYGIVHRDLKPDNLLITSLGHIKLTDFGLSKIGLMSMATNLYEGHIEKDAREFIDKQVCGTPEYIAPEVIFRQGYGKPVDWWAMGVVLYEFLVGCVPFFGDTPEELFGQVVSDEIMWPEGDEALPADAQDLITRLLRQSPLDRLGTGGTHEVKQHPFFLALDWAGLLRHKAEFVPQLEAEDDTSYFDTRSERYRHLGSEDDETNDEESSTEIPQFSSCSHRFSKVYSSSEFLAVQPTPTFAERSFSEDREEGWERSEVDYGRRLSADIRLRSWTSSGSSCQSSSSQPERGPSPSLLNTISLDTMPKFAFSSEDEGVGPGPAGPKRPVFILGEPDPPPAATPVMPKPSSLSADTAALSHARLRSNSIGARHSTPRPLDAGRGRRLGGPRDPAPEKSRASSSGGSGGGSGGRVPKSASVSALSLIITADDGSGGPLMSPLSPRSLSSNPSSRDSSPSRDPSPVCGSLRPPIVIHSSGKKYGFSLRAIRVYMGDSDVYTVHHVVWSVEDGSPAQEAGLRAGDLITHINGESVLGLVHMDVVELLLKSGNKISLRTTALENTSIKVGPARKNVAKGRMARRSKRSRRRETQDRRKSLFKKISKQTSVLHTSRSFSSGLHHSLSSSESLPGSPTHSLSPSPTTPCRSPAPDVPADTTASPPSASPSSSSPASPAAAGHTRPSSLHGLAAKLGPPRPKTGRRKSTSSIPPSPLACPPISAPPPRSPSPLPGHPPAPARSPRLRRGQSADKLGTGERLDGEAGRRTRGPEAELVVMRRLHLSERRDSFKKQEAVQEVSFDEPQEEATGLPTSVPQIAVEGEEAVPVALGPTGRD

[14] = biological target: T14, selected panels of kinases in HeLa and PC3 cell lysates (Homo sapiens, UniProt Q13418); conditions: 10 uM
T14 construct: endogenous in cells; host or cells: HeLa and PC3 cell lysates
T14 sequence (Q13418 1-452): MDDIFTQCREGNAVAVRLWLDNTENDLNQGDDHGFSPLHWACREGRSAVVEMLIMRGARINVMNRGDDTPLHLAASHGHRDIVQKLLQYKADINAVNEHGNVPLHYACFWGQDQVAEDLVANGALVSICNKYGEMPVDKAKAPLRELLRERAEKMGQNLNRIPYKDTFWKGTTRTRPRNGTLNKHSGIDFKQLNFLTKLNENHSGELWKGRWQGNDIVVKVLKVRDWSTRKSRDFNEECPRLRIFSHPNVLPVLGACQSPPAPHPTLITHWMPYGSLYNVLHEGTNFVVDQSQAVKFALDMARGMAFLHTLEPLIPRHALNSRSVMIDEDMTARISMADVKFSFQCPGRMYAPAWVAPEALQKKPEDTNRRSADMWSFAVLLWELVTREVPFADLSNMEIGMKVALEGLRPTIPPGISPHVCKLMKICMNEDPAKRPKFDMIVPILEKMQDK

[15] = biological target: T15, selected panels of kinases in HeLa and PC3 cell lysates (Homo sapiens, UniProt P52564); conditions: 10 uM
T15 construct: endogenous in cells; host or cells: HeLa and PC3 cell lysates
T15 sequence (P52564 1-334): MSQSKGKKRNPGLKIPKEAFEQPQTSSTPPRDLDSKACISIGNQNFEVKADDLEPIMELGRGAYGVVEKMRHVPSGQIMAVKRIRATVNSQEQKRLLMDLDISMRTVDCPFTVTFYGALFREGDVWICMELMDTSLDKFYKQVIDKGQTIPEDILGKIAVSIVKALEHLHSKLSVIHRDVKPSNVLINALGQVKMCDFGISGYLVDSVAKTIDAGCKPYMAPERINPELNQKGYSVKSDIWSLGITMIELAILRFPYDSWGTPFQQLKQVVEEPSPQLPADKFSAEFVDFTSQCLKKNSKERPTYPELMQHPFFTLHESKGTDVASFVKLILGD

[16] = biological target: T16, selected panels of kinases in HeLa and PC3 cell lysates (Homo sapiens, UniProt O75716); conditions: 10 uM, peptide DLk[…], labeling site Lys2
T16 construct: endogenous in cells; host or cells: HeLa and PC3 cell lysates
T16 sequence (O75716 whole entry): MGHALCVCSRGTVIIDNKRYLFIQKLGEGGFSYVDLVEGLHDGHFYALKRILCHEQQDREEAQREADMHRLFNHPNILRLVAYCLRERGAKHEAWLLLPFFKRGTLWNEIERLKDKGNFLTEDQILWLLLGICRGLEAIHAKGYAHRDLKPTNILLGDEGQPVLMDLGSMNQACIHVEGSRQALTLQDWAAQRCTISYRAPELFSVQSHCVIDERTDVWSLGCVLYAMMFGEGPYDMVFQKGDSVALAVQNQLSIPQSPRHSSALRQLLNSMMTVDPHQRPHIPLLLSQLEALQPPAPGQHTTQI

[17] = biological target: T17, selected panels of kinases in HeLa and PC3 cell lysates (Homo sapiens, UniProt Q96S38); conditions: 10 uM; RSKL1 domain1; peptide VLGVIDkVLLVMDTR; proteome HEL; labeling site Protein Kinase Domain
T17 construct: endogenous in cells; host or cells: HeLa and PC3 cell lysates

[18] = proteome HEL, peptide WQGNDIVVkVLK, labeling site Lys1
[19] = proteome PC3, peptide ISMADVkFSFQCPGR, labeling site Protein Kinase Domain
[20] = proteome PC3, peptide WQGNDIVVkVLK, labeling site Lys1
[21] = proteome HEL, peptide DVk[…], labeling site Lys2
[22] = proteome PC3, peptide DVk[…], labeling site Lys2
[23] = proteome PC3, peptide […]kR, labeling site Lys1

COc1cc(C(=O)N2CCC(N3CCN(C)CC3)CC2)ccc1Nc1ncc2c(n1)N(C1CCCC1)c1ccccc1C(=O)N2C [Compound 25, 11-cyclopentyl-2-((2-methoxy-4-(4-(4-methylpiperazin-1-yl)piperidine-1-carbonyl)phenyl)amino)-5-methyl-5H-benzo[e]pyrimido[5,4-b][1,4]diazepin-6(11H)-one]
% Inhibiton, NEK1 [1]: 14.7% | % Inhibiton, KHS1 [2]: -6.6% | % Inhibition PIK3C3 [3]: 4.0% | % Inhibition ZAK ([4]; proteome HEL): -6.6% | % Inhibition ZAK ([4]; proteome PC3): -9.3% | % Inhibiton, FES [5]: 6.0% | % Inhibiton, AurB [6]: 65.8% | % Inhibition PITSLRE [7]: 5.1% | % Inhibition PCTAIRE1 [8]: -25.8% | % Inhibiton, NEK8 [9]: -18.9% | % Inhibiton, MAP3K4 ([10]; proteome HEL): 7.2% | % Inhibiton, MAP3K4 ([10]; proteome PC3): 2.6% | % Inhibiton, CK2a2 [11]: -14.2% | % Inhibition p70S6Kb [12]: 8.4% | % Inhibiton, MAST3 ([13]; proteome HEL): 0.5% | % Inhibiton, MAST3 ([13]; proteome PC3): -6.8% | % Inhibiton, ILK [14, 18]: -3.0% | % Inhibiton, ILK [14, 19]: 8.4% | % Inhibiton, ILK [14, 20]: -5.9% | % Inhibiton, MAP2K6 [15, 21]: 14.2% | % Inhibiton, MAP2K6 [15, 22]: -3.9% | % Inhibiton, MAP2K6 [15, 23]: 12.8% | % Inhibiton, MPSK1 ([16]; proteome HEL): 29.5% | % Inhibiton, MPSK1 ([16]; proteome PC3): -4.3% | % Inhibition RSKL1 domain1 [17]: ~75.1%

CCOc1cc(C(=O)N2CCC(N3CCN(C)CC3)CC2)ccc1Nc1ncc2c(n1)N(C1CCCC1)c1ccccc1C(=O)N2C [Compound 26]
% Inhibiton, NEK1 [1]: 3% | % Inhibiton, KHS1 [2]: -7.1% | % Inhibition PIK3C3 [3]: 8.1% | % Inhibition ZAK ([4]; proteome HEL): 13.4% | % Inhibition ZAK ([4]; proteome PC3): -25.5% | % Inhibiton, FES [5]: 4.1% | % Inhibiton, AurB [6]: 42.5% | % Inhibition PITSLRE [7]: 3.5% | % Inhibition PCTAIRE1 [8]: -26.9% | % Inhibiton, NEK8 [9]: -8.1% | % Inhibiton, MAP3K4 ([10]; proteome HEL): -12% | % Inhibiton, MAP3K4 ([10]; proteome PC3): -1.2% | % Inhibiton, CK2a2 [11]: 8% | % Inhibition p70S6Kb [12]: -21.4% | % Inhibiton, MAST3 ([13]; proteome HEL): -5.1% | % Inhibiton, MAST3 ([13]; proteome PC3): -3.9% | % Inhibiton, ILK [14, 18]: 19.8% | % Inhibiton, ILK [14, 19]: 2% | % Inhibiton, ILK [14, 20]: -69.5% | % Inhibiton, MAP2K6 [15, 21]: -4.3% | % Inhibiton, MAP2K6 [15, 22]: -9.9% | % Inhibiton, MAP2K6 [15, 23]: -2.3% | % Inhibiton, MPSK1 ([16]; proteome HEL): -9.4% | % Inhibiton, MPSK1 ([16]; proteome PC3): 5.8% | % Inhibition RSKL1 domain1 [17]: -6.2%
